According to ChEMBL document CHEMBL5528046, “Discovery of Novel PROTAC Degraders of p300/CBP as Potential Therapeutics for Hepatocellular Carcinoma” (J Med Chem, 2024):
Active and inactive are the calls of the source. The rule behind the calls is not given here.

Experiments:
[1] = target: T1, Protein cereblon/Histone acetyltransferase p300 (Homo sapiens, UniProt Q09472+Q96SW2); assay: PROTAC activity at CRBN/p300 in human SK-HEP1 cells assessed as induction of p300 protein degradation by measuring residual activity at 100 nM incubated for 24 hrs by immunoblotting analysis (reference value: 100%); type: cell-based
[2] = target: T1, Protein cereblon/Histone acetyltransferase p300; assay: PROTAC activity at CRBN/p300 in human SK-HEP1 cells assessed as induction of p300 protein degradation by measuring residual activity at 1 uM incubated for 6 hrs by immunoblotting analysis (reference value: 100%); type: cell-based
[3] = target: T1, Protein cereblon/Histone acetyltransferase p300; assay: PROTAC activity at CRBN/p300 in human SK-HEP1 cells assessed as induction of p300 protein degradation at 0.01 uM incubated for 24 hrs relative to control; type: cell-based
[4] = target: T1, Protein cereblon/Histone acetyltransferase p300; assay: PROTAC activity at CRBN/p300 in human SK-HEP1 cells assessed as induction of p300 protein degradation at 1 uM incubated for 24 hrs relative to control; type: cell-based
[5] = target: T1, Protein cereblon/Histone acetyltransferase p300; assay: PROTAC activity at CRBN/p300 in human SK-HEP1 cells assessed as induction of p300 degradation by measuring residual activity at 0.5 uM pretreated with MG-132 followed by compound addition by immunoblotting analysis relative to control; type: cell-based
[6] = target: T1, Protein cereblon/Histone acetyltransferase p300; assay: PROTAC activity at CRBN/p300 in human SK-HEP1 cells assessed as induction of p300 degradation by measuring increase in p21 level at 0.5 uM pretreated with MG-132 at 1 uM followed by compound addition by immunoblotting analysis relative to control; type: cell-based
[7] = system: SK-HEP1; assay: Downregulation of COL3A1 mRNA expression in human SK-HEP1 cells at 1 uM incubated for 24 hrs by RT-qPCR analysis; type: functional, cell-based
[8] = target: T1, Protein cereblon/Histone acetyltransferase p300; assay: PROTAC activity at CRBN/p300 in human SK-HEP1 cells assessed as increase in protein ubiquitination at 2 uM pretreated with MG132 at 1 uM followed by compound treatment and further incubated for 24 hrs by immunoblotting analysis (reference value: 100%); type: cell-based
[9] = target: T1, Protein cereblon/Histone acetyltransferase p300; assay: PROTAC activity at CRBN/p300 in human SK-HEP1 cells assessed as increase in protein ubiquitination at 2 uM incubated for 24 hrs by immunoblotting analysis (reference value: 100%); type: cell-based
[10] = target: T2, Protein cereblon/CREB-binding protein (Homo sapiens) (UniProt Q92793+Q96SW2); assay: PROTAC activity at CRBN/CBP in human SK-HEP1 cells assessed as induction of […] protein degradation by measuring residual activity at 1 uM incubated for 24 hrs by immunoblotting analysis (reference value: 100%); type: cell-based
T2 sequence (Q92793 2-2442 limits assumed): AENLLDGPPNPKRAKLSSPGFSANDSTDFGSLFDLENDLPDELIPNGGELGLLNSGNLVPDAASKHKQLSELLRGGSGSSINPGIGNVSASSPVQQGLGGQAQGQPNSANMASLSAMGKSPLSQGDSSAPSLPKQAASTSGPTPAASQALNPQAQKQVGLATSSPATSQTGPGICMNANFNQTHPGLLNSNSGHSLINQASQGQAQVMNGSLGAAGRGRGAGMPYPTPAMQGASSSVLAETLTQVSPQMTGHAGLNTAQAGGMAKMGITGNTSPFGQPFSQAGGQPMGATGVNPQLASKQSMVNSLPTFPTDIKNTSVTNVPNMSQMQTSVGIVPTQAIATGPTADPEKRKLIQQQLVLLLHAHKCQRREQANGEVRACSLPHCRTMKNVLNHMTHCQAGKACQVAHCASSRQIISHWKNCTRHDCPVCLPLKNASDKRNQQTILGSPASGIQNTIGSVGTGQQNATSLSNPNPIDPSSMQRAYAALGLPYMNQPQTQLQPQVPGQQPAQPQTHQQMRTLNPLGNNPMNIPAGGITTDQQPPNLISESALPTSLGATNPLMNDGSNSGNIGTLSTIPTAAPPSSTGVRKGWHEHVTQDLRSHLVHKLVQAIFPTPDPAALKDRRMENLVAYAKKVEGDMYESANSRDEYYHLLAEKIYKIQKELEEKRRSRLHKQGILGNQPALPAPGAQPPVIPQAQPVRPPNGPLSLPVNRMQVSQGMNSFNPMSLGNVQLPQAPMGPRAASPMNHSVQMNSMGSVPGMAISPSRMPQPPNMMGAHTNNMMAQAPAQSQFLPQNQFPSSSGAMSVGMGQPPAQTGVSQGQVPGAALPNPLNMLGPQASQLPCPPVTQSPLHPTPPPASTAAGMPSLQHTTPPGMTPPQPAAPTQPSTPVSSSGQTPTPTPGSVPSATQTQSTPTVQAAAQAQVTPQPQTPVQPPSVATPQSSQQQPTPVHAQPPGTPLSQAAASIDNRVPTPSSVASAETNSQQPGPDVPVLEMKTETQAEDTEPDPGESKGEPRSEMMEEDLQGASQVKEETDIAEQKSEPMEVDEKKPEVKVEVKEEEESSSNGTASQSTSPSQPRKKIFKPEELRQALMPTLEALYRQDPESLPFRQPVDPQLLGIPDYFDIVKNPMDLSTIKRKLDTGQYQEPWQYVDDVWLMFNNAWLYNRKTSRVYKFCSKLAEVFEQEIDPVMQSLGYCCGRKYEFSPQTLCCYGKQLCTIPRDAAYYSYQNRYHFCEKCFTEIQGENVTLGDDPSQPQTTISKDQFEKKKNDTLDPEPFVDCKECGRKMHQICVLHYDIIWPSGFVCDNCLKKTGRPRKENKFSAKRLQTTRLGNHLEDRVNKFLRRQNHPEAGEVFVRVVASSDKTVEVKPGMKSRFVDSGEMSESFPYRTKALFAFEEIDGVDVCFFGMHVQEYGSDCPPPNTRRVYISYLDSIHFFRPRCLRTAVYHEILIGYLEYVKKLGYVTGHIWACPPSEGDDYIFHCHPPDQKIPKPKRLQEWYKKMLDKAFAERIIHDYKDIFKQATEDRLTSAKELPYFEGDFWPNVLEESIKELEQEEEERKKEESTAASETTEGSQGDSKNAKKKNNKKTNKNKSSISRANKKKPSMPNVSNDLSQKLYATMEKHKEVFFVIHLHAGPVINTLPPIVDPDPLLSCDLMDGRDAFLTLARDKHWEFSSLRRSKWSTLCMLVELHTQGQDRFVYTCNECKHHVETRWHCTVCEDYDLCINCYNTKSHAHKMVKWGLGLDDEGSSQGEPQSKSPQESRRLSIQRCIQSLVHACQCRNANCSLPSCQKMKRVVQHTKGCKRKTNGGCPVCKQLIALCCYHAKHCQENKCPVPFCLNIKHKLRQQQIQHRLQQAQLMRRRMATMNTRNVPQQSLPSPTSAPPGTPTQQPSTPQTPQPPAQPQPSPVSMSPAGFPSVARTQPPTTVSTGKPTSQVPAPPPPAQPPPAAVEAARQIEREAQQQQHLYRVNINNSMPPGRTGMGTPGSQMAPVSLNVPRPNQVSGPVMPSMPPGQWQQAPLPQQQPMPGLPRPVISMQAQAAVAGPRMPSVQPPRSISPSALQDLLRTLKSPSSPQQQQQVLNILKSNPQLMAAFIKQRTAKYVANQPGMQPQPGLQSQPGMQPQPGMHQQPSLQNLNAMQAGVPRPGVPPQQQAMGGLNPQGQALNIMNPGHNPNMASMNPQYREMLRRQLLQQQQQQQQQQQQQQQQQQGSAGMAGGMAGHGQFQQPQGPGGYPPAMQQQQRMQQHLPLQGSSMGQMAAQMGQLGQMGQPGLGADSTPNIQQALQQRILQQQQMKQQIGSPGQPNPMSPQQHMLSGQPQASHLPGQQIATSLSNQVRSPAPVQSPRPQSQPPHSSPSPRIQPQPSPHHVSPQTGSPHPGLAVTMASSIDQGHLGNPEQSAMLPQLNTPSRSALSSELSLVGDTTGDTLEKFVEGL
T2 sequence (Q96SW2 whole entry partner): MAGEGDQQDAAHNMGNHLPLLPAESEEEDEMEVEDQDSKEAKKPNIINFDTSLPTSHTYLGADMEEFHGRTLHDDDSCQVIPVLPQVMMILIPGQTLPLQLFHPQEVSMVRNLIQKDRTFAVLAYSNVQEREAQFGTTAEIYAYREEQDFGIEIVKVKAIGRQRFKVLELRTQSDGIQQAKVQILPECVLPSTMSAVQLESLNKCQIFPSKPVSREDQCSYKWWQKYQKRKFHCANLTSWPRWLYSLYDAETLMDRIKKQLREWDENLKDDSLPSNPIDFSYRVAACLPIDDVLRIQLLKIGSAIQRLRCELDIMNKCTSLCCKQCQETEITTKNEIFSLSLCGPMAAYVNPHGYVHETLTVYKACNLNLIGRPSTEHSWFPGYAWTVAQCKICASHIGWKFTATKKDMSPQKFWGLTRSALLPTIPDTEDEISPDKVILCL

[11] = system: SK-HEP1; assay: Induction of cell cycle arrest at G2/M phase in human SK-HEP1 cells assessed as reduction in CDK6 protein level at 2 uM incubated for 24 hrs by immunoblotting analysis (reference value: 100%); type: functional; parameters: scale not given: the % may be the effect or the level left
[12] = system: Mus musculus; assay: In vivo PROTAC activity at CRBN/p300 in nude mouse xenografted with human SK-HEP1 cells assessed as reduction in p300 protein level in tumor at 50 mg/kg, ip measured after 24 hrs by immunoblotting analysis; type: functional, organism-based
[13] = system: SK-HEP1; assay: Downregulation of ABI3BP mRNA expression in human SK-HEP1 cells at 1 uM incubated for 24 hrs by RT-qPCR analysis; type: functional, cell-based
[14] = system: SK-HEP1; assay: Downregulation of IGFBP3 mRNA expression in human SK-HEP1 cells at 1 uM incubated for 24 hrs by RT-qPCR analysis; type: functional, cell-based
[15] = system: SK-HEP1; assay: Induction of cell cycle arrest at G2/M phase in human SK-HEP1 cells assessed as CDK6 protein level at 1 uM incubated for 24 hrs by immunoblotting analysis (reference value: 100%); type: functional
[16] = target: T1, Protein cereblon/Histone acetyltransferase p300; assay: PROTAC activity at CRBN/p300 in human SK-HEP1 cells assessed as induction of p300 protein degradation by measuring residual activity at 1 uM incubated for 12 hrs by immunoblotting analysis (reference value: 100%); type: cell-based
[17] = target: T1, Protein cereblon/Histone acetyltransferase p300; assay: PROTAC activity at CRBN/p300 in human SK-HEP1 cells with siRNA mediated CRBN knockdown assessed as induction of p300 degradation by measuring residual activity at 1 uM by immunoblotting analysis relative to control; type: cell-based
[18] = system: SK-HEP1; assay: Induction of cell cycle arrest at G2/M phase in human SK-HEP1 cells assessed as SKP2 protein level at 1 uM incubated for 24 hrs by immunoblotting analysis (reference value: 100%); type: functional
[19] = target: T1, Protein cereblon/Histone acetyltransferase p300; assay: PROTAC activity at CRBN/p300 in human SK-HEP1 cells assessed as induction of p300 protein degradation by measuring residual activity at 10 nM incubated for 24 hrs by immunoblotting analysis (reference value: 100%); type: cell-based
[20] = Antiproliferative activity against human JHH7 cells assessed as inhibition of cell growth incubated for 5 days by CCK-8 assay; type: functional, cell-based; conditions: JHH7, 120 h
[21] = target: T2, Protein cereblon/CREB-binding protein (Homo sapiens); assay: PROTAC activity at CRBN/CBP in human SK-HEP1 cells assessed as induction of […] protein degradation by measuring residual activity at 0.5 uM incubated for 24 hrs by immunoblotting analysis (reference value: 100%); type: cell-based
[22] = target: T2, Protein cereblon/CREB-binding protein (Homo sapiens); assay: PROTAC activity at CRBN/CBP in human SK-HEP1 cells assessed as induction of […] protein degradation by measuring residual activity incubated for 24 hrs by immunoblotting analysis; type: cell-based; conditions: dose 0.5-2 µM
[23] = system: SK-HEP1; assay: Induction of cell cycle arrest at G2/M phase in human SK-HEP1 cells assessed as SKP2 protein level at 2 uM incubated for 24 hrs by immunoblotting analysis (reference value: 100%); type: functional
[24] = system: SK-HEP1; assay: Induction of cell cycle arrest at G2/M phase in human SK-HEP1 cells incubated for 48 hrs by RNase/PI staining based flow cytometry analysis; type: functional; conditions: dose 0.5-2 µM
[25] = system: SK-HEP1; assay: Inhibition of colony formation in human SK-HEP1 cells at 1 uM incubated for 14 days with compound containing media replacement for every 3 days by crystal violet staining based assay relative to control; type: functional; conditions: SK-HEP1, 336 h, time 14 day
[26] = target: T1, Protein cereblon/Histone acetyltransferase p300; assay: PROTAC activity at CRBN/p300 in human SK-HEP1 cells assessed as induction of p300 degradation by measuring residual activity at 0.5 uM pretreated with thalidomide at 0.5 uM followed by compound addition by immunoblotting analysis relative to control; type: cell-based
[27] = target: T1, Protein cereblon/Histone acetyltransferase p300; assay: PROTAC activity at CRBN/p300 in human SK-HEP1 cells assessed as induction of p300 degradation by measuring residual activity at 0.5 uM pretreated with MLN4924 at 0.5 uM followed by compound addition by immunoblotting analysis relative to control; type: cell-based
[28] = system: SK-HEP1; assay: Induction of cell cycle arrest at G2/M phase in human SK-HEP1 cells assessed as CDK6 protein level at 0.5 uM incubated for 24 hrs by immunoblotting analysis (reference value: 100%); type: functional
[29] = target: T1, Protein cereblon/Histone acetyltransferase p300; assay: PROTAC activity at CRBN/p300 in human SK-HEP1 cells assessed as induction of p300 degradation by measuring residual activity at 0.5 uM pretreated with MLN4924 at 0.1 uM followed by compound addition by immunoblotting analysis relative to control; type: cell-based
[30] = system: SK-HEP1; assay: Downregulation of POSTN mRNA expression in human SK-HEP1 cells at 1 uM incubated for 24 hrs by RT-qPCR analysis; type: functional, cell-based

**Q.** Which Activity [1] does the source give for `Cc1noc(C)c1-c1ccc2c(c1)nc([C@@H]1CCCC(=O)N1c1ccc(F)c(F)c1)n2C1CCN(C2CN(c3ccc4c(c3)C(=O)N(C3CCC(=O)NC3=O)C4=O)C2)CC1` (stereo not given in full) here?
**A.** The Activity was 61%.

**Q.** And the Activity [2]?
**A.** Its Activity is 59%.

**Q.** What about the Activity [3] of the same compound?
**A.** Its Activity is 9%.

**Q.** What about the Activity [4] of the same compound?
**A.** The Activity was 47%.

**Q.** What about the Activity [5] of the same compound?
**A.** Its Activity is 93%.

**Q.** And the Activity [6]?
**A.** Its Activity is 537%.

**Q.** What about the Activity [7] of the same compound?
**A.** The Activity was “Active”.

**Q.** What about the Activity [8] of the same compound?
**A.** Its Activity is 114%.

**Q.** What about the Activity [9] of the same compound?
**A.** Its Activity is 125%.

**Q.** What about the Activity [10] of the same compound?
**A.** Its Activity is 92%.

**Q.** And the Activity [11]?
**A.** The Activity was 87%.

**Q.** What about the Activity [12] of the same compound?
**A.** The Activity was “Active”.

**Q.** And the Activity [13]?
**A.** The Activity was “Active”.

**Q.** What about the Activity [14] of the same compound?
**A.** Its Activity is “Active”.

**Q.** What about the Activity [15] of the same compound?
**A.** The Activity was 102%.

**Q.** And the Activity [16]?
**A.** Its Activity is 58%.

**Q.** And the Activity [17]?
**A.** The Activity was 78%.

**Q.** What about the Activity [18] of the same compound?
**A.** The Activity was 88%.

**Q.** What about the Activity [19] of the same compound?
**A.** The Activity was 70%.

**Q.** And the IC50 [20]?
**A.** Its IC50 is 447 nM.

**Q.** What about the Activity [21] of the same compound?
**A.** Its Activity is 98%.

**Q.** And the Activity [22]?
**A.** Its Activity is “Dose-Dependent Effect”.

**Q.** And the Activity [23]?
**A.** Its Activity is 60%.

**Q.** What about the Activity [24] of the same compound?
**A.** Its Activity is “Dose-Dependent Effect”.

**Q.** And the inhibition at 1 µM [25]?
**A.** The inhibition at 1 µM was greater than 70%.

**Q.** And the Activity [26]?
**A.** Its Activity is 99%.

**Q.** What about the Activity [27] of the same compound?
**A.** Its Activity is 101%.

**Q.** And the Activity [28]?
**A.** The Activity was 104%.

**Q.** And the Activity [29]?
**A.** Its Activity is 115%.

**Q.** And the Activity [30]?
**A.** The Activity was “Active”.
